# Source: paper PMC6321230, “Metabolic Stability and Metabolite Characterization of Capilliposide B and Capilliposide C by LC–QTRAP–MS/MS” (Pharmaceutics, 2018)
# Assays:
# [1] = tested on: HepG2 cells; parameters: method as in PMID 26678180; conditions: cited from earlier work
# [2] = parameters: method as in PMID 27859436; conditions: mouse, after intravenous dosing of LC-B; cited from earlier work
# [3] = mouse, microsomes
# [4] = parameters: method as in PMID 27521984; conditions: intravenous administration; cited from earlier work
# [5] = tested on: ovarian carcinoma A-2780; parameters: method as in PMID 16595968, PMID 24554216; conditions: cited from earlier work
# [6] = tested on: prostate cancer PC3; parameters: method as in PMID 16595968, PMID 24554216; conditions: cited from earlier work
# [7] = tested on: DU145 cells; parameters: method as in PMID 16595968, PMID 24554216; conditions: cited from earlier work
# [8] = parameters: method as in PMID 24313264; conditions: oral administration; cited from earlier work
# [9] = Metabolic stability in mouse liver microsomes; conditions: for in vitro t1/2 in mouse liver microsomes: MLM 0.5 mg/mL, NADPH, 37 °C, substrate 1.0 μM (midazolam 0.5 μM)
# [10] = parameters: method as in PMID 26678180; conditions: cited from earlier work
# [11] = tested on: esophageal squamous carcinoma cells; parameters: method as in PMID 28463955; conditions: cotreatment of LC-C and oxaliplatin; cited from earlier work
# [12] = Metabolic stability in rat liver microsomes; conditions: pH 7.4
# [13] = Metabolic stability in human liver microsomes; conditions: pH 7.4
Structure (SMILES),cytotoxicity against HepG2 cells [1],main site of tissue distribution [2],degradation in MLM regardless of the presence of NADPH [3],degradation in MLM with esterase inhibitor dichlorvos [3],recovery in rat excreta [4],cytotoxicity against A-2780 [5],cytotoxicity against PC3 [6],cytotoxicity against DU145 [7],bioavailability [8],exposure in tissues [8],in vitro t1/2 in mouse liver microsomes [9] [min],fraction metabolized in intestinal microflora [10] [%],chemosensitizing effect of cotreatment with oxaliplatin [11],half-life at 0.5 μM [12] [min],half-life at 0.5 μM [13] [min],"half-life at 0.5 μM ([9]; mouse, microsomes, pH 7.4) [min]"
"CC1(C)C[C@@H]2[C@@]3([C@H](O)C[C@]4(C)[C@@]2(CC[C@@H]2[C@@]5(C)CC[C@H](O[C@@H]6OC[C@H](O[C@@H]7O[C@H](CO)[C@@H](O)[C@H](O)[C@H]7O[C@@H]7OC[C@@H](O)[C@H](O)[C@H]7O)[C@H](O)[C@H]6O[C@@H]6O[C@H](CO)[C@@H](O)[C@H](O)[C@H]6O)C(C)(C)[C@@H]5CC[C@]24C)O[C@@H]3O)[C@@H](O)C1 [LC-A, Capilliposide A]",significant cytotoxicity,mainly distributed in mouse liver,–,–,–,–,–,–,–,–,–,–,–,–,–,–
"CCCCCC(=O)O[C@H]1CC(C)(C)C[C@@H]2[C@@]13[C@H](O)C[C@]1(C)[C@@]2(CC[C@@H]2[C@@]4(C)CC[C@H](O[C@@H]5OC[C@H](O[C@@H]6O[C@H](CO)[C@@H](O)[C@H](O)[C@H]6O[C@@H]6OC[C@@H](O)[C@H](O)[C@H]6O)[C@H](O)[C@H]5O[C@@H]5O[C@H](CO)[C@@H](O)[C@H](O)[C@H]5O)C(C)(C)[C@@H]4CC[C@]21C)O[C@H]3O [LC-B, Capilliposide B]",–,–,obvious degradation,remarkably inhibited,less than 10%,significant cytotoxicities,significant cytotoxicities,significant cytotoxicities,poor bioavailability,low exposure in tissues,27.7,–,–,–,–,–
"CC1(C)C[C@H](O[C@@H]2O[C@H](CO)[C@@H](O)[C@H](O)[C@H]2O)[C@@]23[C@H](O)C[C@]4(C)[C@@](CC[C@@H]5[C@@]6(C)CC[C@H](O[C@@H]7OC[C@H](O[C@@H]8O[C@H](CO)[C@@H](O)[C@H](O)[C@H]8O[C@@H]8OC[C@@H](O)[C@H](O)[C@H]8O)[C@H](O)[C@H]7O[C@@H]7O[C@H](CO)[C@@H](O)[C@H](O)[C@H]7O)C(C)(C)[C@@H]6CC[C@]54C)(O[C@@H]2O)[C@@H]3C1 [LC-C, Capilliposide C]",–,–,obvious degradation,remarkably inhibited,–,significant cytotoxicities,significant cytotoxicities,significant cytotoxicities,poor bioavailability,low exposure in tissues,63.0,92.7,chemosenstizing effect,–,–,–
"Cc1ncc2n1-c1ccc(Cl)cc1C(c1ccccc1F)=NC2 [midazolam, Midazolam]",–,–,–,–,–,–,–,–,–,–,–,–,–,2.35,3.73,3.85
